Data set [1] deals with DYRK1B. The settings on record: Target DYRK1B; NCGC compounds; cited from earlier work.
Data set [2] relates to endogenous NKX3.1 in LNCaP cells. Nature of the data set: Endogenous NKX3.1 half-life in LNCaP cells exposed to cycloheximide, immunoblot. The data set is classed as cell-based, human.
In data set [3] the target is DYRK and CLK family kinases. The settings on record: cited from earlier work.

Consider `Cc1nc(CNc2ncnc3ccc(-c4ccc5c(c4)OCO5)cc23)cs1` [NCGC00185963], for which the concentration for half-maximal inhibition (IC50) in data set [1] was 1510 nM.

On to `c1coc(CCNc2ncnc3ccc(-c4ccc5c(c4)OCO5)cc23)c1` [NCGC00185976], for which the 50% inhibitory concentration (IC50) in data set [1] was 103 nM.

For the compound `Cc1nc(CN(C)c2ncnc3ccc(-c4ccc5c(c4)OCO5)cc23)cs1` [NCGC00185981], the “Effect on NKX3.1 half-life / degradation (in words)” value in data set [2] is given as “most active compound”. In addition, in data set [1], the IC50 is 25 nM. Also, the “Kinase specificity (in words)” value in data set [3] was “specificity against both DYRK and CLK family kinases”.

On to `CN(Cc1cccs1)c1ncnc2ccc(-c3ccc4c(c3)OCO4)cc12` [NCGC00185984], for which, in data set [1], the 50% inhibitory concentration (IC50) is 72 nM. Besides, in data set [3], the “Kinase specificity (in words)” value is listed as “no specificity for CLK kinases”.

The values above are taken from publication PMC4511920 (Molecular cancer research : MCR, 2015).
